One experiment concerns Bacillus subtilis. Put plainly: Antibacterial activity against Bacillus subtilis assessed as bacterial growth inhibition at 50 ug/ml after 24 hrs by cup-plate agar diffusion method. The note with it: read-out: IZ. The format is functional.
Experiment [1] concerns Escherichia coli. Put plainly: Antibacterial activity against Escherichia coli assessed as bacterial growth inhibition at 50 ug/ml after 24 hrs by cup-plate agar diffusion method. The format is functional. To be noted: read-out: IZ.
The subject of experiment [2] is Escherichia coli. Put plainly: Induction of DNA cleavage of Escherichia coli pUC18 plasmid DNA at 50 ug/ml after 2 hrs by agarose gel elctrophoresis method.
The test system of experiment [3] is Escherichia coli. Put plainly: Induction of DNA cleavage of Escherichia coli pUC18 plasmid DNA at 100 ug/ml after 2 hrs by agarose gel elctrophoresis method.

Results on 16 compounds are retold here after ChEMBL document CHEMBL3580659, “One-pot multicomponent synthesis of indole incorporated thiazolylcoumarins and their antibacterial, anticancer and DNA cleavage studies” (2015).

The source made the active and inactive calls. The calls are words filed in the database; no cut-off is given here.

On to `CCn1cc(/C=N/Nc2nc(-c3cc4cc(Br)ccc4oc3=O)cs2)c2ccccc21`, for which the zone of inhibition at 50 µg/mL in the experiment with Bacillus subtilis and in the experiment on Escherichia coli [1] was 15 mm each time. The outcome with Escherichia coli [2] was Active.

With `O=c1oc2c(Br)cc(Br)cc2cc1-c1csc(N/N=C/c2c[nH]c3ccccc23)n1`, the zone of inhibition at 50 µg/mL with Bacillus subtilis was found to be 10 mm; in the experiment on Escherichia coli [1], 7 mm. For the same compound, the result in the experiment on Escherichia coli [2] was Active.

In the case of `O=c1oc2ccc(Br)cc2cc1-c1csc(N/N=C/c2c[nH]c3ccccc23)n1`, the results for the zone of inhibition at 50 µg/mL in the experiment on Bacillus subtilis and with Escherichia coli [1] were 15 mm and 13 mm, respectively. For the same compound, the outcome in the experiment with Escherichia coli [2] was Active.

Consider `O=c1oc2ccc(Cl)cc2cc1-c1csc(N/N=C/c2c[nH]c3ccccc23)n1`, for which the zone of inhibition at 50 µg/mL in the experiment with Bacillus subtilis stood at 13 mm; in the experiment on Escherichia coli [1], 15 mm. Further, the result in the experiment with Escherichia coli [2] was Active.

For the compound `CCn1cc(/C=N/Nc2nc(-c3cc4ccccc4oc3=O)cs2)c2ccccc21`, the zone of inhibition at 50 µg/mL in the experiment on Bacillus subtilis and in the experiment with Escherichia coli [1] was 10 mm throughout. The outcome in the experiment on Escherichia coli [3] was Active.

Consider `O=c1oc2ccccc2cc1-c1csc(N/N=C/c2c[nH]c3ccc(Br)cc23)n1`, for which the zone of inhibition at 50 µg/mL is 15 mm in the experiment on Bacillus subtilis and 10 mm in the experiment with Escherichia coli [1]. Further, the result with Escherichia coli [2] was Active.

With `Cc1[nH]c2ccccc2c1/C=N/Nc1nc(-c2cc3cc(Cl)ccc3oc2=O)cs1`, the zone of inhibition at 50 µg/mL in the experiment with Bacillus subtilis was found to be 10 mm; in the experiment with Escherichia coli [1], 6 mm. Also, in the experiment on Escherichia coli [2], the outcome was Active.

On to `COc1ccc2[nH]cc(/C=N/Nc3nc(-c4cc5cc(Br)cc(Br)c5oc4=O)cs3)c2c1`, for which the zone of inhibition at 50 µg/mL with Bacillus subtilis and with Escherichia coli [1] was 10 mm each time. Besides, in the experiment with Escherichia coli [2], the outcome was Active.

`CCn1cc(/C=N/Nc2nc(-c3cc4cc(Br)cc(Br)c4oc3=O)cs2)c2ccccc21`: the zone of inhibition at 50 µg/mL in the experiment with Bacillus subtilis and with Escherichia coli [1] was 10 mm throughout. In the experiment on Escherichia coli [2], the result was Active.

`O=c1oc2ccc3ccccc3c2cc1-c1csc(N/N=C/c2c[nH]c3ccccc23)n1`: the results for the zone of inhibition at 50 µg/mL in the experiment on Bacillus subtilis and in the experiment with Escherichia coli [1] were 15 mm and 14 mm, respectively. Moreover, the outcome in the experiment with Escherichia coli [2] was Active.

On to `Cc1[nH]c2ccccc2c1/C=N/Nc1nc(-c2cc3cc(Br)ccc3oc2=O)cs1`, for which the zone of inhibition at 50 µg/mL in the experiment on Bacillus subtilis stood at 10 mm; in the experiment with Escherichia coli [1], 12 mm. The outcome with Escherichia coli [2] was Active.

Take `COc1ccc2[nH]cc(/C=N/Nc3nc(-c4cc5ccccc5oc4=O)cs3)c2c1`: the values for the zone of inhibition at 50 µg/mL in the experiment with Bacillus subtilis and in the experiment with Escherichia coli [1] were 13 mm and 10 mm, respectively. In addition, the result with Escherichia coli [2] was Active.

As for `Cc1[nH]c2ccccc2c1/C=N/Nc1nc(-c2cc3cc(Br)cc(Br)c3oc2=O)cs1`, the zone of inhibition at 50 µg/mL with Bacillus subtilis stood at 15 mm; with Escherichia coli [1], 12 mm. For the same compound, the result in the experiment on Escherichia coli [2] was Active.

Regarding `Cc1[nH]c2ccccc2c1/C=N/Nc1nc(-c2cc3ccccc3oc2=O)cs1`, the zone of inhibition at 50 µg/mL in the experiment on Bacillus subtilis worked out at 13 mm; with Escherichia coli [1], 10 mm. For the same compound, in the experiment with Escherichia coli [2], the result was Active.

As for `COc1ccc2[nH]cc(/C=N/Nc3nc(-c4cc5c(ccc6ccccc65)oc4=O)cs3)c2c1`, the values for the zone of inhibition at 50 µg/mL with Bacillus subtilis and with Escherichia coli [1] were 15 mm and 12 mm, respectively. Besides, in the experiment with Escherichia coli [2], the outcome was Active.

As to `CCn1cc(/C=N/Nc2nc(-c3cc4c(ccc5ccccc54)oc3=O)cs2)c2ccccc21`, the zone of inhibition at 50 µg/mL is 15 mm in the experiment with Bacillus subtilis and 12 mm in the experiment on Escherichia coli [1]. Moreover, in the experiment with Escherichia coli [3], the outcome was Active.
